The target of this assay is T1, αvβ3 purified from 293 cells overexpressing αvβ3 (Homo sapiens, UniProt P05106+P06756).
T1 construct: made in house; host or cells: 293 cells overexpressing αvβ3
The experiment in a line: SPAV3 binding assay (scintillation proximity). The text has this: • 1. Wheat germ agglutinin Scintillation Proximity Beads (SPA): Amersham • 2. Octylglucopyranoside: Calbiochem • 3. HEPES: Calbiochem • 4. NaCl: Fisher • 5. CaCl2: Fisher • 6. MgCl2: SIGMA • 7. Phenylmethylsulfonylfluoride (PMSF): SIGMA • 8. Optiplate: PACKARD • 9. (S)-3-(4-(2-(6-aminopyridin-2-yl)ethyl)benzamido)-2-((4-(iodo-^125I)phenyl)sulfonamido)propanoic acid as found in WO0046215 (specific activity 500-1000 Ci/mmole) • 10. Test compound • 11. Purified integrin receptor: αvβ3 was purified from 293 cells overexpressing αvβ3 (Duong et al., J. Bone Min. Res., 8:S378, 1993) according to Pytela (Methods in Enzymology, 144:475, 1987) • 12. Binding buffer: 50 mM HEPES, pH 7.8, 100 mM NaCl, 1 mM Ca^2+/Mg^2+, 0.5 mM PMSF • 13. 50 mM octylglucoside in binding buffer: 50-OG buffer
• 1. Pretreatment of SPA beads: • 500 mg of lyophilized SPA beads were first washed four times with 200 ml of 50-OG buffer and once with 100 ml of binding buffer, and then resuspended in 12.5 ml of binding buffer. • 2. Preparation of SPA beads and receptor mixture • In each assay tube, 2.5 μl (40 mg/ml) of pretreated beads were suspended in 97.5 μl of binding buffer and […] of 50-OG buffer. […] (˜30 ng/μ1) of purified receptor was added to the beads in suspension with stirring at room temperature for 30 minutes. The mixture was then centrifuged at 2,500 rpm in a Beckman GPR Benchtop centrifuge for 10 minutes at 4° C. The pellets were then resuspended in 50 μl of binding buffer and 25 μl of 50-OG buffer. • 3. Reaction • The following were sequentially added into Optiplate in corresponding wells: • (i) Receptor/beads mixture (75 μl) • (ii) 25 μl of each of the following: compound to be tested, binding buffer for total binding or A-8 for non-specific binding (final concentration 1 μM) • (iii) (S)-3-(4-(2-(6-aminopyridin-2-yl)ethyl)benzamido)-2-((4-(iodo-^125I)phenyl)sulfonamido)propanoic acid as found in WO0046215 (specific activity 500-1000 Ci/mmole) in binding buffer (25 μl, final concentration 40 pM) • (iv) Binding buffer (125 μl) • (v) Each plate was sealed with plate sealer from PACKARD and incubated overnight with rocking at 4° C. • 4. Plates were counted using PACKARD TOPCOUNT • 5. % inhibition was calculated as follows: • A=total counts • B=nonspecific counts • C=sample counts
% inhibition=[{(A−B)−(C−B)}/(A−B)]/(A−B)×100

T1 sequence (P06756 31-889 limits assumed): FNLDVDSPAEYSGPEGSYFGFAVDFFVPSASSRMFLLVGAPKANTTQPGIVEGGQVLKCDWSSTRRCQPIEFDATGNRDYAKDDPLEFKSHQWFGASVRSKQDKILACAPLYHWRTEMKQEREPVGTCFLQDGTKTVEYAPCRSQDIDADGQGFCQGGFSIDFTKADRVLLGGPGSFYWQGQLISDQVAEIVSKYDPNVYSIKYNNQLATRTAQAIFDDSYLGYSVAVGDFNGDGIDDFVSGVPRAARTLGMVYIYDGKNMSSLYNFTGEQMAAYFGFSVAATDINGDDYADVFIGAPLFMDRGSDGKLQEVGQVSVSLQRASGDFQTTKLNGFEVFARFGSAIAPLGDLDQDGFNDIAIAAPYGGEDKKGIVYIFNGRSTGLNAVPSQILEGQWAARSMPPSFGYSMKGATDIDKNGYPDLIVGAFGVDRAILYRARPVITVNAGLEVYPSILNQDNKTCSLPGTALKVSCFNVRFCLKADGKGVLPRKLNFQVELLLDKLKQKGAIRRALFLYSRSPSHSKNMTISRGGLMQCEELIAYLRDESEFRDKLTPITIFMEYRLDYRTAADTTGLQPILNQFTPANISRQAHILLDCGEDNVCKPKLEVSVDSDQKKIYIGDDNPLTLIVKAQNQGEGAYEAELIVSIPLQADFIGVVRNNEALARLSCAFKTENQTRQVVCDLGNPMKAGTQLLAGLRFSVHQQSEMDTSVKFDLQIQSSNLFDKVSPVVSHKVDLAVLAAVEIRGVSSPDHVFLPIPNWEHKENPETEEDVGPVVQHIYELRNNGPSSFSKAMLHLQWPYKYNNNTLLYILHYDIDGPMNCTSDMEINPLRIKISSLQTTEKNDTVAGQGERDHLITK
T1 sequence (P06756 891-1048 partner limits assumed): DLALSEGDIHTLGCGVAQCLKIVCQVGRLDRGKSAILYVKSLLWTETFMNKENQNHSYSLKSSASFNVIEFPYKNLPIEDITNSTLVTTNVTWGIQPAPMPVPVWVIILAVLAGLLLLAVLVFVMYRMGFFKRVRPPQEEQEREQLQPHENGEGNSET
T1 sequence (P05106 27-788): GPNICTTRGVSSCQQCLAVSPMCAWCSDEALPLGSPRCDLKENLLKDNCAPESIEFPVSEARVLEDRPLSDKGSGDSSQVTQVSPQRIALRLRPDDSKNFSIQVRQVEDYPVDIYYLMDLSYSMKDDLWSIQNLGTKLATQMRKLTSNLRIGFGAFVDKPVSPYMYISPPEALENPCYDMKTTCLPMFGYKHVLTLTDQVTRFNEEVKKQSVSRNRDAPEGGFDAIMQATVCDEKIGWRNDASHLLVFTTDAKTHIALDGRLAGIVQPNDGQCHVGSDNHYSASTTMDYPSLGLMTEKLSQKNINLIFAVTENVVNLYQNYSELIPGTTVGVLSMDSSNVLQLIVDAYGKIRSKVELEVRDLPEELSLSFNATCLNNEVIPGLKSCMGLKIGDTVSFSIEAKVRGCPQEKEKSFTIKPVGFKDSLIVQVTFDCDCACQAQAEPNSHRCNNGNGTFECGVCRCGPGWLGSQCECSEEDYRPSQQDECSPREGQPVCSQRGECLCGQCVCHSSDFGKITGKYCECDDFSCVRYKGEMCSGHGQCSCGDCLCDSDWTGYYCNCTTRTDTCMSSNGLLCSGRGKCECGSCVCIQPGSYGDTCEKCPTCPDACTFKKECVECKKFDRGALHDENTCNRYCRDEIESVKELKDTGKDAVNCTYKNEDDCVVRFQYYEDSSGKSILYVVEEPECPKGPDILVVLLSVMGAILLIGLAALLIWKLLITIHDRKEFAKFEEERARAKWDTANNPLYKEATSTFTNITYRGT

The molecule `O=C(O)C[C@H](/C=C/CCCCc1ccc2c(n1)NCCC2)c1cncnc1` [Compound E, 3 (R)-(Pyrimidin-5-yl)-9-(5,6,7,8-tetrahydro-[1,8]-naphthyridin-2-yl)-(E)-non-4-enoic Acid] showed an IC50 of 0.1 nM.

With `COc1ccc([C@H](CC(=O)O)N2CCN(CCCc3ccc4c(n3)NCCC43CC3)C2=O)cn1` [Compound C], the IC50 was 0.1 nM. As for `Cc1ncc(C(CC(=O)O)CC(=O)CCCCc2ccc3c(n2)NCCC3)cn1` (single isomer, unassigned) [Compound G, 3(S or R)-(2-Methyl-pyrimidin-5-yl)-5-oxo-9-(5,6,7,8-tetrahydro-[1,8]naphthyridin-2-yl)-nonanoic Acid], the figure is 0.1 nM; as for `CCOc1ccc([C@H](CC(=O)O)N2CCN(CCCc3ccc4c(n3)NCCC4)C2=O)cn1` [Compound D], 0.1 nM. Molecule `Cc1ncc([C@@H](CCCCCCc2ccc3c(n2)NCCC3)CC(=O)O)cn1` [Compound F] gave an IC50 of 0.1 nM.

Molecule `Cc1ncc(C(CC(=O)O)CC(=O)CCCCc2ccc3c(n2)NCCCC3)cn1` [Compound H, 3(R) and 3(S)-(2-Methyl-pyrimidin-5-yl)-5-oxo-9-(5,6,7,8-tetrahydro-5H-pyrido[2,3-b]azepin-2-yl)-nonanoic Acid] registered an IC50 of 0.2 nM.

A word on the IC50: it is the concentration that gives 50% inhibition.
